Like-named read-outs stand apart in the source and are kept apart here.
Columns and labels:
HeLa cells [1] = test: Prestoblue cell viability assay on HeLa cells (compounds alone and with paclitaxel); type: cell-based; settings: Homo sapiens, HeLa, 72 h, HeLa, 72 h, read-out: GI50 of Paclitaxel
Description: Cell viability was analyzed using the colorimetric Prestoblue assay (Invitrogen, #A13262). Cells were seeded in 96 well microplates (Greiner, #655077) at a density of 2,500 cells per well and allowed to adhere for 24 h before being treated for 72 h with either DMSO (0.1% final concentration) or drugs at indicated concentrations. After the 72 h treatment, 10 μL A Prestoblue was added to each well and cells were incubated for another 45 min. The absorbance of each well was measured using FLUOstar Optima microplate reader (Excitation, 544 nm; Emission, 580 nm).
First, the cytotoxicity on HeLa cells of compounds (I-a), (I-c) (I-f), (I-h), (I-e), (I-m), (I-n) and (I-s) was assessed with the above described “prestoblue” assay.
Then, HeLa cells were treated during 72 hours with different concentrations of a mixture of paclitaxel (0.05, 0.1, 0.25, 0.5, 1, 2.5, 5 nM) and compounds (I-a), (I-f), (I-h), (I-e), (I-m), (I-n), (I-c) and (I-s).

RPE-1 cells = test: Prestoblue viability assay on non-cancerous RPE-1 cells; type: cell-based; settings: Homo sapiens, 72 hours
Description: RPE-1 cells were incubated for 72 hours with the indicated combinations of compound (I-a)/paclitaxel. The percentage of viable cells was calculated following a Prestoblue assay, as described above. Data are presented as mean±SEM of 3 independent experiments.

HeLa cells [2] = test: Cell cycle distribution by flow cytometry; type: cell-based; settings: paclitaxel 5 nM, after 15 hours
Description: For flow cytometry analysis, Hela cells were treated with the indicated concentrations of compound (I-a) for 12 hours, 24 hours and 48 hours. Cells were then harvested and washed by centrifugation in PBS. Then, 10^5 cells were fixed in 1 mL of 70% methanol at 4° C. overnight. Following two washes with PBS the cells were incubated with 50 μg·mL^−1 propidium iodide and 0.2 mg·mL^−1 RNase A/PBS for 30 min at 37° C. before analysis. The percentage of cells in the specific cell-cycle phases (G0, G1, S, G2, and M) was determined using an Accuri C6 flow cytometer (Becton Dickinson). The results are expressed as the mean±SD of three separate experiments. The significance was determined by a Student's t-test (*p<0.05, **p<0.01, ***p<0.0001, compared with the control). Flow cytometry analysis was performed using HeLa cells. […] The results are expressed as the mean±SD of three separate experiments. The significance was determined by a Student's t-test (*p<0.05, **p<0.01, ***p<0.0001, compared with the control).

HeLa cell tumors = test: HeLa cell xenograft tumor growth in mice; type: in vivo
Description: The effects on tumor growth of compound (I-a) and paclitaxel injected separately to the effect of a combined administration of compound (I-a) plus paclitaxel were compared in a tumor mouse model.
A first series of experiments (not shown) assessed that HeLa cell tumors were sensitive to therapeutic doses of paclitaxel. To that aim, mice bearing sizable tumors, formed of HeLa cells that have been xenografted, received intraveinous (i.v.) injections of paclitaxel (from 2 to 8 mg/Kg), every two days during 10 days. In the same experiment, the effect of compound (I-a) (from 15 to 60 mg/Kg, i.v.) injected with the same schedule was analyzed. […] The results confirmed the anti-tumor effect of high paclitaxel concentrations in this model. They also indicate that compound (I-a), when applied alone, has no significant anti-tumor activity, even at high concentrations.
A second experiment was conducted to study of the effect on tumor size of low (2 to 3 mg/Kg) paclitaxel doses in combination with different concentrations of compound (I-a).
Protocol for this combination study: 72 NMRI nude mice (5-week-old females) were injected subcutaneously with 10×10^6 exponentially dividing HeLa cells into the right flank. When tumors have reached a volume of about 200 mm 3 i.e. nine days after cell injection, mice were randomized in 9 groups of 8 mice each and drugs were injected intraveinously every two days. The first group received paclitaxel at 2 mg/kg, the second group received paclitaxel at 3 mg/Kg, the third group received compound (I-a) at 40 mg/Kg, the fourth group received compound (I-a) at 60 mg/Kg, the fifth group received a combination of compound (I-a) (40 mg/Kg) and paclitaxel (2 mg/Kg), the sixth group received a combination of compound (I-a) (40 mg/Kg) and paclitaxel (3 mg/Kg), the seventh group received a combination of compound (I-a) (60 mg/Kg) and paclitaxel (2 mg/Kg), the eight group received a combination of compound (I-a) (60 mg/Kg) and paclitaxel (3 mg/Kg) and the ninth group received the vehicle (14% DMSO, 14% Tween 80 and 72% PBS). Tumor growth was monitored three times per week with a sliding caliper.

HeLa cells [3] = test: FITC Annexin V apoptosis assay by flow cytometry; type: cell-based; settings: Paclitaxel 1 nM
Description: Apoptosis assay was performed with FITC Annexin V Apoptosis Detection Kit I (BD Biosciences, #556547) using flow cytometry and analyzed by FCS express software.

CC(=O)O[C@H]1C(=O)[C@@]2(C)[C@H]([C@H](OC(=O)c3ccccc3)[C@]3(O)C[C@H](OC(=O)[C@H](O)[C@@H](NC(=O)c4ccccc4)c4ccccc4)C(C)=C1C3(C)C)[C@]1(OC(C)=O)CO[C@@H]1C[C@@H]2O [Paclitaxel, paclitaxel] showed a GI50 (HeLa cells [1]; 0.1 μM compound (I-h) added to paclitaxel) of 1.25 nM, a GI50 (HeLa cells [1]; 0.2 μM compound (I-h) added to paclitaxel) of 1.07 nM and a GI50 (HeLa cells [1]; 0.4 μM compound (I-h) added to paclitaxel) of 0.79 nM. For the same molecule, the GI50 (HeLa cells [1]; 0.8 μM compound (I-e) added to paclitaxel) was 1.36 nM, the GI50 (HeLa cells [1]; 1.2 μM compound (I-c) added to paclitaxel) was 0.75 nM and the GI50 (HeLa cells [1]; 1.2 μM compound (I-s) added to paclitaxel) was 0.75 nM. For the same molecule, the GI50 (HeLa cells [1]; 1.5 μM compound (I-e) added to paclitaxel) was 1.25 nM, the GI50 (HeLa cells [1]; 1.5 μM compound (I-f) added to paclitaxel) was 1.36 nM and the GI50 (HeLa cells [1]; 3 μM compound (I-a) added to paclitaxel) was 1.36 nM. For the same molecule, the GI50 (HeLa cells [1]; 3 μM compound (I-e) added to paclitaxel) was 1.2 nM, the GI50 (HeLa cells [1]; 3 μM compound (I-f) added to paclitaxel) was 1.25 nM and the GI50 (HeLa cells [1]; 3 μM compound (I-m) added to paclitaxel) was 1.5 nM. It also gave a GI50 (HeLa cells [1]; 3 μM compound (I-n) added to paclitaxel) of 1.5 nM, a GI50 (HeLa cells [1]; 6 μM compound (I-a) added to paclitaxel) of 1.2 nM and a GI50 (HeLa cells [1]; 6 μM compound (I-f) added to paclitaxel) of 0.88 nM. It also gave a GI50 (HeLa cells [1]; 6 μM compound (I-m) added to paclitaxel) of 1.5 nM, a GI50 (HeLa cells [1]; 6 μM compound (I-n) added to paclitaxel) of 1.5 nM and a GI50 (HeLa cells [1]; 12 μM compound (I-a) added to paclitaxel) of 0.68 nM. It also gave a GI50 (HeLa cells [1]; 12 μM compound (I-m) added to paclitaxel) of 1.25 nM, a GI50 (HeLa cells [1]; 12 μM compound (I-n) added to paclitaxel) of 1.25 nM and a GI50 (HeLa cells [1]; paclitaxel alone (0 μM compound added), HeLa cells) of 1.5 nM. The GI50 (RPE-1 cells) was 7 nM, the “cell population blocked in G2/M phase” value (HeLa cells [2]) was “half of the cell population” and the cells in apoptosis (HeLa cells [2]) was about 20%. The tumor size (HeLa cell tumors; combination study, each compound administered separately (paclitaxel 2 or 3 mg/Kg, (I-a) 40 or 60 mg/Kg)) was “no effect”, the “weight of treated animals versus vehicle-treated animals” value (HeLa cell tumors; first experiment, paclitaxel 2 to 8 mg/Kg or (I-a) 15 to 60 mg/Kg i.v. every two days during 10 days) was “not significantly different” and the tumor size (HeLa cell tumors; first experiment, paclitaxel 4 and 8 mg/Kg i.v. every two days during 10 days) was “important reduction of tumor size”. The “% of apoptosis” value (HeLa cells [3]) was 13.00 ± 0.48%.

Source: patent US12409162B2, “Carbazole derivatives sensitizing cells to anti-cancer agents” (CENTRE NATIONAL DE LA RECHERCHE SCIENTIFIQUE, priority 2019, dated 2025)
